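How tested: cells in 96-well plates exposed to compound for 48 hours at five concentrations. GI50 is the concentration that inhibits growth by half.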 Calls of active or inactive are those of the source. Rule as the data show it: active = GI50 up to about 1.1 µM and inactive = higher.
How the values were obtained:
Assay in all cases: NCI-60 cell line screen, 48 h
[1] = system: A498
[2] = system: A549
[3] = system: ACHN
[4] = system: BT-549
[5] = system: CCRF-CEM
[6] = system: COLO 205
[7] = system: HCT-116
[8] = system: IGROV-1
[9] = system: KM12
[10] = system: MDA-MB-231
[11] = system: Malme-3M
[12] = system: NCI-H460
[13] = system: NCI/ADR-RES
[14] = system: OVCAR-4
[15] = system: SF-268
[16] = system: SF-295
[17] = system: SF-539
[18] = system: SNB-19
[19] = system: UACC-257
[20] = system: UACC-62

Compound	GI50 [1]	GI50 [2]	GI50 [3]	GI50 [4]	GI50 [5]	GI50 [6]	GI50 [7]	GI50 [8]	GI50 [9]	GI50 [10]	GI50 [11]	GI50 [12]	GI50 [13]	GI50 [14]	GI50 [15]	GI50 [16]	GI50 [17]	GI50 [18]	GI50 [19]	GI50 [20]
C=C1[C@@](C)([C@@H]2CCCS2)[C@H]2C(C)=C[C@]1(C)n1c(=O)n(-c3ccccc3)c(=O)n12	> 100 µM (inactive)	> 100 µM (inactive)	> 100 µM (inactive)	> 100 µM (inactive)	> 100 µM (inactive)	> 100 µM (inactive)	> 100 µM (inactive)	56.2 µM (inactive)	> 100 µM (inactive)	> 100 µM (inactive)	> 100 µM (inactive)	> 100 µM (inactive)	> 100 µM (inactive)	> 100 µM (inactive)	> 100 µM (inactive)	> 100 µM (inactive)	> 100 µM (inactive)	> 100 µM (inactive)	> 100 µM (inactive)	> 100 µM (inactive)
Cc1ccc2nc(-c3ccc(C(C)(C)C)cc3)oc(=O)c2c1	24.8 µM (inactive)	14.6 µM (inactive)	12.3 µM (inactive)	24.4 µM (inactive)	20.7 µM (inactive)	18.2 µM (inactive)	17 µM (inactive)	23.1 µM (inactive)	7.38 µM (inactive)	20.6 µM (inactive)	21.6 µM (inactive)	16.2 µM (inactive)	17.7 µM (inactive)	20.7 µM (inactive)	24.5 µM (inactive)	17.8 µM (inactive)	18.2 µM (inactive)	25.2 µM (inactive)	18.9 µM (inactive)	17.5 µM (inactive)
N#CCCN(CCNc1ccccc1)C(=O)Nc1ccc(NC(=O)N(CCC#N)CCNc2ccccc2)cc1	> 100 µM (inactive)	> 100 µM (inactive)	> 100 µM (inactive)	> 38.5 µM (inactive)		> 100 µM (inactive)	> 100 µM (inactive)		> 96.6 µM (inactive)	> 100 µM (inactive)	> 100 µM (inactive)	> 67.6 µM (inactive)	> 63.8 µM (inactive)	24.7 µM (inactive)	> 47.4 µM (inactive)	> 74.6 µM (inactive)	> 100 µM (inactive)	> 100 µM (inactive)	> 100 µM (inactive)	> 100 µM (inactive)
COc1cc([C@@]23OC[C@@H]4[C@@H](OC[C@@H]42)c2cc4c(cc23)OCO4)cc(OC)c1OC	< 0.01 µM (active)	< 0.01 µM (active)	< 0.0127 µM (active)	< 0.0304 µM (active)	< 0.01 µM (active)	< 0.01 µM (active)	< 0.01 µM (active)	< 0.01 µM (active)	< 0.01 µM (active)	< 0.01 µM (active)	0.0838 µM (active)	< 0.01 µM (active)	< 0.01 µM (active)	5.19 µM (inactive)	0.0851 µM (active)	< 0.01 µM (active)	< 0.01 µM (active)	< 0.01 µM (active)	< 0.01 µM (active)	< 0.01 µM (active)
c1ccc2c(c1)ncn2CCn1ccnc1	> 100 µM (inactive)	> 100 µM (inactive)	> 100 µM (inactive)	> 100 µM (inactive)	> 100 µM (inactive)	> 100 µM (inactive)		> 100 µM (inactive)	> 100 µM (inactive)	> 100 µM (inactive)	> 100 µM (inactive)	> 100 µM (inactive)	> 100 µM (inactive)	15.8 µM (inactive)	> 100 µM (inactive)	> 100 µM (inactive)	> 100 µM (inactive)	> 100 µM (inactive)		> 100 µM (inactive)
Cc1occc1/C(S)=N\c1ccc(Cl)c(COC(C)(C)C)c1	17.8 µM (inactive)	19.3 µM (inactive)	17.3 µM (inactive)	17.6 µM (inactive)	23.9 µM (inactive)	15.7 µM (inactive)	17.9 µM (inactive)	15 µM (inactive)	16.7 µM (inactive)	17.1 µM (inactive)	16.5 µM (inactive)	17.2 µM (inactive)	16.1 µM (inactive)	15.3 µM (inactive)	17.9 µM (inactive)	14.8 µM (inactive)	16.8 µM (inactive)	20.9 µM (inactive)	15.7 µM (inactive)	14.6 µM (inactive)
O=C(Nc1ccc2c(c1)oc(=O)c1ccccc12)C(Cl)Cl	> 100 µM (inactive)	39.1 µM (inactive)	> 100 µM (inactive)	> 100 µM (inactive)	> 100 µM (inactive)	66.2 µM (inactive)	69.3 µM (inactive)	> 100 µM (inactive)	33.2 µM (inactive)	> 100 µM (inactive)	> 100 µM (inactive)	27.6 µM (inactive)	> 100 µM (inactive)	> 10 µM (inactive)	> 100 µM (inactive)	> 100 µM (inactive)	69.7 µM (inactive)	27.3 µM (inactive)	> 100 µM (inactive)	36.6 µM (inactive)
COC(=O)c1cc(OS(=O)(=O)C(F)(F)F)c(=O)n2c1CCCC2	> 100 µM (inactive)	> 100 µM (inactive)	> 100 µM (inactive)	> 100 µM (inactive)	> 100 µM (inactive)	> 100 µM (inactive)	> 100 µM (inactive)	> 100 µM (inactive)	> 100 µM (inactive)	> 100 µM (inactive)	> 100 µM (inactive)		> 100 µM (inactive)	> 100 µM (inactive)	> 100 µM (inactive)	> 100 µM (inactive)	> 100 µM (inactive)	> 100 µM (inactive)	> 100 µM (inactive)	86.3 µM (inactive)
CCC1CCN/C(=N/S(=O)(=O)c2cc(C)c(Cl)cc2S)N1 (centres undefined)	> 100 µM (inactive)	> 100 µM (inactive)	34.6 µM (inactive)	17.7 µM (inactive)	25.9 µM (inactive)	39.2 µM (inactive)	24.7 µM (inactive)	24.2 µM (inactive)		44.8 µM (inactive)	37.2 µM (inactive)	8.2 µM (inactive)	38.7 µM (inactive)	24.3 µM (inactive)	57 µM (inactive)		29.4 µM (inactive)	30.2 µM (inactive)	42.9 µM (inactive)	14 µM (inactive)
CSc1n[n+](C)cc(N)c1N	> 100 µM (inactive)	> 100 µM (inactive)	> 100 µM (inactive)	87.1 µM (inactive)	> 100 µM (inactive)	> 100 µM (inactive)	> 100 µM (inactive)	> 100 µM (inactive)	> 100 µM (inactive)	> 100 µM (inactive)	36.1 µM (inactive)		> 100 µM (inactive)	> 100 µM (inactive)		> 100 µM (inactive)	> 100 µM (inactive)	29.9 µM (inactive)	52 µM (inactive)	> 100 µM (inactive)
CNC(=O)OCC1C2=C(C(=O)C(C)=C(N)C2=O)N2CC3C(N3C)C12OC (centres undefined)	15.3 µM (inactive)	1.83 µM (inactive)	3.8 µM (inactive)	31.8 µM (inactive)	3.76 µM (inactive)	13.6 µM (inactive)	10.9 µM (inactive)	12.4 µM (inactive)		> 100 µM (inactive)	2.38 µM (inactive)	0.0867 µM (active)	32.5 µM (inactive)	15.7 µM (inactive)		5.02 µM (inactive)	10.1 µM (inactive)	3.3 µM (inactive)	21.4 µM (inactive)	9.93 µM (inactive)
COC(=O)C[C@H](COCc1ccccc1)NC(=O)C[C@H](COCc1ccccc1)NC(=O)OC(C)(C)C	27.1 µM (inactive)	24.2 µM (inactive)	38.6 µM (inactive)	20.7 µM (inactive)	> 100 µM (inactive)	> 100 µM (inactive)	27.5 µM (inactive)	33.7 µM (inactive)	45.3 µM (inactive)	36.6 µM (inactive)	36.6 µM (inactive)		21.8 µM (inactive)	18.5 µM (inactive)	20 µM (inactive)	34.1 µM (inactive)	34.7 µM (inactive)	21.2 µM (inactive)		36.6 µM (inactive)
C=C1CC(C)(c2ccc(Nc3nc4ccccc4c4occc34)cc2)OC1=O (centres undefined)	18.9 µM (inactive)	4.52 µM (inactive)	4.26 µM (inactive)	2.37 µM (inactive)	1.12 µM (active)	3.59 µM (inactive)	1.34 µM (inactive)		5.97 µM (inactive)	1.75 µM (inactive)	17.2 µM (inactive)	14.7 µM (inactive)	4.44 µM (inactive)	1.77 µM (inactive)	2.93 µM (inactive)	12.8 µM (inactive)	2 µM (inactive)	7.45 µM (inactive)	0.0186 µM (active)	
Cc1cc(Cc2c(C)c(C)c(Cc3cc(C)cc(C(C)(C)C)c3O)c(C)c2C)c(O)c(C(C)(C)C)c1	> 100 µM (inactive)	> 100 µM (inactive)	> 100 µM (inactive)	> 100 µM (inactive)		> 100 µM (inactive)	> 100 µM (inactive)	> 100 µM (inactive)	> 100 µM (inactive)	> 100 µM (inactive)	> 100 µM (inactive)	> 100 µM (inactive)	> 100 µM (inactive)	> 100 µM (inactive)	> 100 µM (inactive)	> 100 µM (inactive)	> 100 µM (inactive)	> 100 µM (inactive)	> 100 µM (inactive)	> 100 µM (inactive)

From ChEMBL document CHEMBL1201862, “PubChem BioAssay data set” (2004)
